Experimental data published in patent US9233946B2, “Sulfonamide compounds” (KANCERA AB, priority 2010, dated 2016).

Molecular target: PFKFB3 (Homo sapiens (Human), UniProt Q16875)
Assay: PFKFB3 kinase activity, Method A (F-2,6-P2 production, coupled PPi-PFK/NADH assay)
Assay type: biochemical
From the text: The PFKFB3 (placenta form) and PFKFB4 were produced and purified to homogeneity from E. coli at Biovitrum and at Sprint Bioscience. All other reagents were purchased from commercial sources. Two independent methods have been used for determination of the kinase activity of PFKFB3 (Method A and Method B). Method B has been used for determination of the kinase activity of PFKFB4.
Method A: The kinase activity of the bi-functional enzyme is readily quantified based on the production of F-2,6-P2 as described by Van Schaftingen et al. (1982) Eur. J. Biochem. 129, 191-5. This sensitive assay is based on the potent activation of pyrophosphate dependent phosphofructokinase-1 (PPi-PFK) from potato tubers by F-2,6-P2. The use of a series of coupled enzymes leads to a consumption of NADH (nicotinamide adenine dinucleotide) that can be followed spectrophotometrically (an updated protocol is available in Van Schaftingen, (1984) Methods of Enzymatic Analysis (Bergmeyer, H. U., ed.), 3rd edn., vol. 6, pp. 335-341, Verlag Chemie, Weinheim). A protocol for measurements in 96-well microtiter plate format is also available (Bruni et al., (1989) Anal. Biochem. 178, 324-6). These assay protocols have been adopted for the measurement of the kinase activity of PFKFB3 with some modifications as described in the protocol below.
The assay was run in 96-well microtiter plates (Costar 3365 round bottom polypropylene) by consecutive additions of 30 μl each of a test compound solution (diluted from a DMSO stock solution), a PFKFB3 solution and a substrate (fructose-6-phosphate (F6P) and adenosine-5′-triphosphate (ATP)) containing solution. […] The final concentrations of all reagents in a total assay volume of 90 μl per well were: • 50 mM Tris-acetate at pH 8.0 • 0.1 mM EDTA (ethylene diamine tetraacetic acid) • 10 mM MgCl2 • 5 mM Na2HPO4 (buffered by the Tris-acetate to a final pH of 8.0) • 5 nM PFKFB3 • 4 μM ATP • 100 μM F6P (acid treated and then neutralized to remove any contaminating F-2,6-P2; see Van Schaftingen, 1984) • 1 mM dithiothreitol (DTT) • 0.005% Tween-20
A test compound at various concentrations (which also added 0.83% DMSO to the final solution)
The enzymatic reaction was allowed to proceed for 10 minutes at room temperature while on a plate shaker at medium speed (750 RPM). The reaction was then terminated by the addition of 90 μl of a 0.4 M NaOH solution to all wells. The plate was then placed on the plateshaker at the same speed for two minutes to allow sufficient mixing. All samples were then diluted by a factor of 10 by transferring 20 μl from each well to the corresponding well of a new plate with 180 μl distilled water predispensed to all wells.
The next step in the protocol was quantification of the levels of F-2,6-P2 in each well of the microtiter plate. This was done by transferring 20 μl of the content in each well to the corresponding position in a new plate (Nunc 269620 transparent 96-well plate). […] To ensure that all measured values were within the linear range of the response (measured to be between 0-1 nM of F-2,6-P2 as also described by Van Schaftingen) the same volume of a 2.5 nM and a 5.0 nM standard sample were also added to column 12 (as all samples were diluted five-fold in the assay procedure this corresponds to 0.5 and 1.0 nM samples). The procedure then involved consecutive additions of three solutions with the following premixed components: • Assay-mix (20 μl): Tris-acetate at pH 8.0, NADH and Mg(OAc)2 • PPi/F6P-mix (40 μl): Pyrophosphate and F6P • Enzyme-mix (20 μl): Tris-acetate at pH 8.0, aldolase, triose phosphate isomerase, glycerol-3-phosphate dehydrogenase, pyrophosphate-dependent phosphofructokinase from potato tubers and bovine serum albumin (BSA) […]

Sequence of PFKFB3 (Q16875 whole entry): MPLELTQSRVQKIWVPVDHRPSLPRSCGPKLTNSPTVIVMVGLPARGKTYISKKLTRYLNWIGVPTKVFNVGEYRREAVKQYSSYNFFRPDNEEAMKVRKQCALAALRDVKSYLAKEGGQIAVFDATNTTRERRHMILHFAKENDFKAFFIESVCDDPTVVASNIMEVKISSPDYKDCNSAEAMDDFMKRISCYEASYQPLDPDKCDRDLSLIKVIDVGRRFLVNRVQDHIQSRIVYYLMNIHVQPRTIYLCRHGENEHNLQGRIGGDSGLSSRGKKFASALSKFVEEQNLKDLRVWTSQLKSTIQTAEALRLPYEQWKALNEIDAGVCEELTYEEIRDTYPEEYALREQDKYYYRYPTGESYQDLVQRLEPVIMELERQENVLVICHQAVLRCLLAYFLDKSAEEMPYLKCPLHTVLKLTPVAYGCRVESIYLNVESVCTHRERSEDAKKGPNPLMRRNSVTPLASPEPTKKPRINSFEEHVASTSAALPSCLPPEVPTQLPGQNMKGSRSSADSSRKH

SMILES	IC50 [nM]
O=C(O)c1cccc(NS(=O)(=O)c2ccc(-c3ccccn3)s2)c1 [Example 78, 3-{[(5-Pyridin-2-yl-2-thienyl)sulfonyl]amino}benzoic acid]	6690
COc1ccc(-c2cccc(S(=O)(=O)Nc3cccc(-c4nnn[nH]4)c3)c2)cc1 [Example 19, 4′-Methoxy-N-[3-(1H-tetrazol-5-yl)phenyl]biphenyl-3-sulfonamide]	720
Cc1c(S(=O)(=O)Nc2cccc(-c3nnn[nH]3)c2)sc2ccc(N)cc12 [Example 48, 5-Amino-3-methyl-N-[3-(1H-tetrazol-5-yl)phenyl]-1-benzothiophene-2-sulfonamide]	360
O=S(=O)(Nc1cccc(-c2nnn[nH]2)c1)c1ccc(-c2cnco2)cc1 [Example 83, 4-(1,3-Oxazol-5-yl)-N-[3-(1H-tetrazol-5-yl)phenyl]benzenesulfonamide]	8450
Cc1nc(-c2ccc(S(=O)(=O)Nc3cccc(-c4nnn[nH]4)c3)s2)cs1 [Example 25, 5-(2-Methyl-1,3-thiazol-4-yl)-N-[3-(1H-tetrazol-5-yl)phenyl]thiophene-2-sulfonamide]	310
Cc1c(S(=O)(=O)Nc2cccc(C(=O)O)n2)sc2ccc(C(C)C)cc12 [Example 10, 6-{[(5-Isopropyl-3-methyl-1-benzothien-2-yl)sulfonyl]amino}pyridine-2-carboxylic acid]	810
O=C(O)c1cccc(NS(=O)(=O)c2ccc(-c3ccon3)s2)c1 [Example 79, 3-{[(5-Isoxazol-3-yl-2-thienyl)sulfonyl]amino}benzoic acid]	6310
O=S(=O)(Nc1cccc(-c2nnn[nH]2)c1)c1cccc(-c2ccc(C(F)(F)F)cc2)c1 [Example 55, N-[3-(1H-Tetrazol-5-yl)phenyl]-3-[4-(trifluoromethyl)phenyl]benzenesulfonamide]	5750
CC(=O)Nc1ccc2sc(S(=O)(=O)Nc3cccc(C(=O)O)c3)c(C)c2c1 [Example 49, 3-({[5-(Acetylamino)-3-methyl-1-benzothien-2-yl]sulfonyl}amino)benzoic acid]	5070
Cc1cc(Cl)cc(Cl)c1S(=O)(=O)Nc1cccc(-c2nnn[nH]2)c1 [Example 53, 2,4-Dichloro-6-methyl-N-[3-(1H-tetrazol-5-yl)phenyl]benzenesulfonamide]	1780
NC(=O)c1cccc(-c2ccc(S(=O)(=O)Nc3cccc(-c4nnn[nH]4)c3)s2)c1 [Example 58, 3-[5-[[3-(1H-Tetrazol-5-yl)phenyl]sulfamoyl]-2-thienyl]benzamide]	540
O=S(=O)(Nc1cccc(-c2nnn[nH]2)c1)c1ccc(Br)cc1C(F)(F)F [Example 56, 4-Bromo-N-[3-(1H-tetrazol-5-yl)phenyl]-2-(trifluoromethyl)benzenesulfonamide]	1120
O=S(=O)(Nc1cccc(-c2nnn[nH]2)c1)c1ccc(-c2cnco2)s1 [Example 2, 5-(1,3-Oxazol-5-yl)-N-[3-(1H-tetrazol-5-yl)phenyl]thiophene-2-sulfonamide]	3910
Cc1c(S(=O)(=O)Nc2cncc(C(=O)O)c2)sc2ccc(C(C)C)cc12 [Example 9, 5-{[(5-Isopropyl-3-methyl-1-benzothien-2-yl)sulfonyl]amino}nicotinic acid]	730
O=S(=O)(Nc1cccc(-c2nnn[nH]2)c1)c1ccc(-c2nsc(Cl)n2)s1 [Example 59, 5-(5-Chloro-1,2,4-thiadiazol-3-yl)-N-[3-(1H-tetrazol-5-yl)phenyl]thiophene-2-sulfonamide]	560
O=S(=O)(Nc1cccc(-c2nnn[nH]2)c1)c1ccc(Cl)c(Cl)c1Cl [Example 1, 2,3,4-Trichloro-N-[3-(1H-tetrazol-5-yl)phenyl]benzenesulfonamide]	280
Cc1c(S(=O)(=O)Nc2cccc(-c3nnn[nH]3)c2)oc2ccc(C(C)C)cc12 [Example 13, 5-Isopropyl-3-methyl-N-[3-(1H-tetrazol-5-yl)phenyl]-1-benzofuran-2-sulfonamide]	80
Cc1c(S(=O)(=O)Nc2cc(C(=O)O)cc([N+](=O)[O-])c2)sc2ccc(C(C)C)cc12 [Example 11, 3-{[(5-Isopropyl-3-methyl-1-benzothien-2-yl)sulfonyl]amino}-5-nitrobenzoic acid]	850
O=S(=O)(Nc1cccc(-c2nnn[nH]2)c1)c1cccc(-c2ccc(F)cc2)c1 [Example 17, 4′-Fluoro-N-[3-(1H-tetrazol-5-yl)phenyl]biphenyl-3-sulfonamide]	450
O=S(=O)(Nc1cccc(-c2nnn[nH]2)c1)c1cccc(-c2cc(Cl)cc(Cl)c2)c1 [Example 52, 3-(3,5-Dichlorophenyl)-N-[3-(1-H-tetrazol-5-yl)phenyl]benzenesulfonamide]	2540
O=S(=O)(Nc1cccc(-c2nnn[nH]2)c1)c1ccc(-c2ccccc2)cc1 [Example 31, N-[3-(1H-Tetrazol-5-yl)phenyl]biphenyl-4-sulfonamide]	1390
Cc1c(S(=O)(=O)Nc2cccc(C(=O)O)c2)oc2ccc(C(C)C)cc12 [Example 14, 3-{[(5-Isopropyl-3-methyl-1-benzofuran-2-yl)sulfonyl]amino}benzoic acid]	280
Cc1nc(NS(=O)(=O)c2sc3ccc(C(C)C)cc3c2C)sc1C(=O)O [Example 8, 2-{[(5-Isopropyl-3-methyl-1-benzothien-2-yl)sulfonyl]amino}-4-methyl-1,3-thiazole-5-carboxylic acid]	610
Cc1c(S(=O)(=O)Nc2cccc(-c3nnn(CC(=O)O)n3)c2)sc2ccc(C(C)C)cc12 [Example 12, [5-(3-{[(5-Isopropyl-3-methyl-1-benzothien-2-yl)sulfonyl]amino}phenyl)-2H-tetrazol-2-yl]acetic acid]	1020
Cc1c(S(=O)(=O)Nc2cccc(CC(=O)O)c2)sc2ccc(C(C)C)cc12 [Example 15, (3-{[(5-Isopropyl-3-methyl-1-benzothien-2-yl)sulfonyl]amino}phenyl)acetic acid]	230
O=S(=O)(Nc1cccc(-c2nnn[nH]2)c1)c1ccc(F)cc1Cl [Example 81, 2-Chloro-4-fluoro-N-[3-(1H-tetrazol-5-yl)phenyl]benzenesulfonamide]	9840
O=S(=O)(Nc1cccc(-c2nnn[nH]2)c1)c1ccc2ccccc2c1 [Example 20, N-[3-(1H-Tetrazol-5-yl)phenyl]naphthalene-2-sulfonamide]	850
